Assay results as given in patent publication US20260001914A1, “MACROCYCLIC PEPTIDES TARGETING KRAS” (Merck Sharp & Dohme LLC, priority 2022, published 2026).
*1 amine or outer side, *2 acyl side, *3 side chain or, on linkers, in order; H or OH if unused. Where a SMILES comes first, the peptide text is derived from it. Bridges are numbered along the chain shown (N, C = ends). [ ]: non-standard residue; d: D form. X55 = O=C([C@H](Cc1coc(-c2ccccc2)n1)N[*:1])[*:2]; Ala(pyrimidin-5-yl) = N[C@@H](Cc1cncnc1)C(=O)O; X71 = COc1c(F)cc(C[C@H](N[*:1])C(=O)[*:2])cc1F; NMe3Pal(6-Me) = CN[C@@H](Cc1ccc(C)nc1)C(=O)O; NMePhe(3-Me) = CN[C@@H](Cc1cccc(C)c1)C(=O)O; X43 = CN([C@@H](Cc1cnccc1F)C(=O)[*:2])[*:1]; Bip = N[C@@H](Cc1ccc(-c2ccccc2)cc1)C(=O)O; X25 = O=C([C@H](Cc1ccc(F)nc1)N[*:1])[*:2]; X13 = O=C([C@H](Cc1ccncc1F)N[*:1])[*:2]; X30 = O=C([C@H](Cc1ncccc1F)N[*:1])[*:2]; NMeAha = CN[C@@H](CCN=[N+]=[N-])C(=O)O; 1Nal = N[C@@H](Cc1cccc2ccccc12)C(=O)O; NHCH2CH2SCH2CO = O=C(CSCCN[*:1])[*:2]; Phe(2-F) = N[C@@H](Cc1ccccc1F)C(=O)O; NMe3Pal = CN[C@@H](Cc1cccnc1)C(=O)O; X1 = O=C(C12CC(CN[*:1])(C1)C2)[*:2]; hTyr = N[C@@H](CCc1ccc(O)cc1)C(=O)O; NMeOrn(Me) = CNCCC[C@H](NC)C(=O)O; Ala(cPr) = N[C@@H](CC1CC1)C(=O)O; NMeF = CN[C@@H](Cc1ccccc1)C(=O)O; PhLac = O=C(O)[C@@H](O)Cc1ccccc1; X9 = CCCC[C@H](O[*:1])C(=O)[*:2]; 3Pal = N[C@@H](Cc1cccnc1)C(=O)O; 4Pal = N[C@@H](Cc1ccncc1)C(=O)O; Ahp(2) = CCCCC[C@H](N)C(=O)O; Cba = N[C@@H](CC1CCC1)C(=O)O; hLeu = CC(C)CC[C@H](N)C(=O)O; hLys = NCCCCC[C@H](N)C(=O)O; αMeC = C[C@](N)(CS)C(=O)O; NMeA = CN[C@@H](C)C(=O)O; Nle = CCCC[C@H](N)C(=O)O

Target: KRAS-G12D protein (Homo sapiens, UniProt P01116, G12D)
Sequence (P01116 1-188 isoform P01116-2 G12D): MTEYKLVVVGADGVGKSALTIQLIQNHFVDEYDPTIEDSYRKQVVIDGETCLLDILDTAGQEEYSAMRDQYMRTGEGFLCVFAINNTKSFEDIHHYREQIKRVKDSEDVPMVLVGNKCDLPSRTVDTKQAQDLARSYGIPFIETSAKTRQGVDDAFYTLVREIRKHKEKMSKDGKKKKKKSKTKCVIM
Assay: SOS-mediated nucleotide exchange assay (BODIPY-GDP / Tb-streptavidin TR-FRET)
Type: biochemical

| SMILES | EC50 [nM] |
| --- | --- |
| CCCC[C@@H]1NC(=O)[C@H](Cc2ccccc2F)NC(=O)[C@H](CCCC)OC(=O)[C@H](Cc2cccnc2)NC(=O)[C@H](CCN=[N+]=[N-])N(C)C(=O)[C@H](Cc2ccccc2)NC(=O)C23CC(CNC(=O)[C@H](Cc4cccnc4)N(C)C1=O)(C2)C3 [compound 250, cyclo(F-NMeDabN3-3Pal-NleLac-Phe2F-Nle-NMe3Pal-amBCP)] (cyclo(F[NMeAha][3Pal][X9][Phe(2-F)][Nle][NMe3Pal][X1])) | 3880 |
| CCCC[C@@H]1NC(=O)[C@H](Cc2ccc(O)cc2)NC(=O)[C@H](CC(C)C)NC(=O)[C@H](Cc2ccc(O)cc2)NC(=O)[C@H](CCCNC(=N)N)NC(=O)[C@H](Cc2ccccc2)NC(=O)CSC[C@H](C(N)=O)NC(=O)[C@H](Cc2ccccc2)N(C)C1=O [compound 18, cyclo(F-R-Y-L-Y-Nle-NMeF-dCl-ClAc)] | 825 |
| CCCC[C@@H]1NC(=O)[C@H](Cc2cccnc2)NC(=O)[C@H](CCCNC(=N)N)NC(=O)[C@H](Cc2ccccc2)NC(=O)CSC[C@@](C)(C(=O)O)NC(=O)[C@H](Cc2cccnc2)N(C)C(=O)[C@H](CCCC)NC(=O)[C@H](Cc2ccccc2F)NC1=O [compound 148, cyclo(F-R-3Pal-Nle-Phe2F-Nle-NMe3Pal-aMeC-ClAc)] ({CH2CO}-FR[3Pal][Nle][Phe(2-F)][Nle][NMe3Pal][αMeC]-OH; thioether N-8) | 370 |
| CCCCC[C@@H]1NC(=O)[C@H](Cc2ccc(OC)cc2)NC(=O)[C@H](CC2CCC2)NC(=O)[C@H](Cc2cncnc2)NC(=O)[C@H](CCCNC(=N)N)NC(=O)[C@H](Cc2ccccc2)NC(=O)CSC[C@@](C)(C(N)=O)NC(=O)[C@H](Cc2ccccc2)N(C)C1=O [compound 367, cyclo(F-R-PyrimAla-cBuA-TyrOMe-Ahp-NMeF-aMeCl-ClAc)] ({CH2CO}-FR[Ala(pyrimidin-5-yl)][Cba]Y(Me)[Ahp(2)][NMeF][αMeC]-NH2; thioether N-8) | 4.05 |
| CCCCC[C@@H]1NC(=O)[C@H](Cc2ccc(OC)cc2)NC(=O)[C@H](CC2CCC2)NC(=O)[C@H](Cc2cccnc2)NC(=O)[C@H](CCCNC)N(C)C(=O)[C@H](Cc2ccccc2)NC(=O)CSC[C@@](C)(C(N)=O)NC(=O)[C@H](Cc2ccc(C)nc2)N(C)C1=O [compound 393, cyclo(F-NMeOrnMe-3Pal-cBuA-TyrOMe-Ahp-NMe3Pal4Me-aMeCl-ClAc)] ({CH2CO}-F[NMeOrn(Me)][3Pal][Cba]Y(Me)[Ahp(2)][NMe3Pal(6-Me)][αMeC]-NH2; thioether N-8) | 132 |
| Cc1cccc(C[C@H]2C(=O)NCC34CC(C3)(C4)C(=O)O[C@@H](Cc3ccccc3)C(=O)N(C)[C@@H](C)C(=O)N[C@@H](Cc3cncnc3)C(=O)N[C@@H](CC3CC3)C(=O)N[C@@H](Cc3ccncc3F)C(=O)N[C@@H](CCC(C)C)C(=O)N2C)c1 [compound 279, cyclo(FLac-NMeA-PyrimAla-cPrA-4Pal2F-hL-NMePhe3Me-amBCP)] (cyclo([Ala(cPr)][X13][hLeu][NMePhe(3-Me)][X1][PhLac][NMeA][Ala(pyrimidin-5-yl)])) | 3 |
| CCCC[C@@H]1NC(=O)[C@H](CCCCCN)NC(=O)[C@H](CCCNC(=N)N)NC(=O)[C@H](Cc2ccccc2)NC(=O)CSCCNC(=O)[C@H](Cc2ccccc2)N(C)C(=O)[C@H](CCc2ccc(O)cc2)NC(=O)[C@H](Cc2ccc(-c3ccccc3)cc2)NC1=O [compound 194, cyclo(F-R-hK-Nle-Bip-hY-NMeF-Cysteamine-ClAc)] (cyclo([Bip][hTyr][NMeF][NHCH2CH2SCH2CO]FR[hLys][Nle])) | 4490 |
| CCCC[C@@H]1NC(=O)[C@H](Cc2cc(F)c(OC)c(F)c2)NC(=O)[C@H](C)N(C)C(=O)[C@H](Cc2ccccc2)OC(=O)C23CC(CNC(=O)[C@H](Cc4ccccc4)N(C)C(=O)[C@H](CCCC)NC(=O)[C@H](Cc4ccccc4F)NC1=O)(C2)C3 [compound 310, cyclo(FLac-NMeA-TyrOMe35F2-Nle-Phe2F-Nle-NMeF-amBCP)] (cyclo([NMeA][X71][Nle][Phe(2-F)][Nle][NMeF][X1][PhLac])) | 140 |
| CCCC[C@@H]1NC(=O)[C@H](Cc2cncnc2)NC(=O)[C@H](C)N(C)C(=O)[C@H](Cc2ccccc2)OC(=O)C23CC(CNC(=O)[C@H](Cc4ccccc4)N(C)C(=O)[C@H](CCCC)NC(=O)[C@H](Cc4ncccc4F)NC1=O)(C2)C3 [compound 229, cyclo(FLac-NMeA-PyrimAla-Nle-2Pal6F-Nle-NMeF-amBCP)] (cyclo([NMeA][Ala(pyrimidin-5-yl)][Nle][X30][Nle][NMeF][X1][PhLac])) | 559 |
| CCCC[C@@H]1NC(=O)[C@H](Cc2coc(-c3ccccc3)n2)NC(=O)[C@H](C)N(C)C(=O)[C@H](Cc2ccccc2)OC(=O)C23CC(CNC(=O)[C@H](Cc4ccccc4)N(C)C(=O)[C@H](CCCC)NC(=O)[C@H](Cc4ccccc4F)NC1=O)(C2)C3 [compound 307, cyclo(FLac-NMcA-AlaOxz2Ph-Nle-Phe2F-Nle-NMeF-amBCP)] (cyclo([NMeA][X55][Nle][Phe(2-F)][Nle][NMeF][X1][PhLac])) | 155 |
| CCCC[C@@H]1NC(=O)[C@H](Cc2ccccc2F)NC(=O)[C@H](CCC(C)C)NC(=O)[C@H](Cc2cncnc2)NC(=O)[C@H](C)N(C)C(=O)[C@H](Cc2ccccc2)OC(=O)C23CC(CNC(=O)[C@H](Cc4cccnc4)N(C)C1=O)(C2)C3 [compound 127, cyclo(FLac-NMeA-PyrimAla-hL-Phe2F-Nle-NMe3Pal-amBCP)] (cyclo([NMe3Pal][X1][PhLac][NMeA][Ala(pyrimidin-5-yl)][hLeu][Phe(2-F)][Nle])) | 228 |
| CC(C)CC[C@@H]1NC(=O)[C@H](Cc2ccccc2F)NC(=O)[C@H](CC2CC2)NC(=O)[C@H](Cc2cncnc2)NC(=O)[C@H](C)N(C)C(=O)[C@H](Cc2ccccc2)OC(=O)C23CC(CNC(=O)[C@H](Cc4cnccc4F)N(C)C1=O)(C2)C3 [compound 338, cyclo(FLac-NMeA-PyrimAla-cPrA-Phe2F-hL-NMe3Pal6F-amBCP)] (cyclo([Ala(cPr)][Phe(2-F)][hLeu][X43][X1][PhLac][NMeA][Ala(pyrimidin-5-yl)])) | 2 |
| CCCC[C@@H]1NC(=O)[C@H](Cc2ccc(OC)cc2)NC(=O)[C@H](CC2CCC2)NC(=O)[C@H](Cc2cccnc2)NC(=O)[C@H](CCCNC(=N)N)NC(=O)[C@H](Cc2ccccc2)NC(=O)C2CCC3(CN(C3)C(=O)[C@H](Cc3ccccc3)N(C)C1=O)O2 (single isomer, unassigned) [compound 100, cyclo(F-R-3Pal-cBuA-TyrOMe-Nle-NMeF-spiro54)] | 656 |
| CCCC[C@@H]1NC(=O)[C@H](Cc2ccncc2)NC(=O)[C@H](CCCNC(=N)N)NC(=O)[C@H](Cc2cccc3ccccc23)NC(=O)CSC[C@H](C(=O)O)NC(=O)[C@H](Cc2ccccc2)N(C)C(=O)[C@H](CCCC)NC(=O)[C@H](Cc2ccc(O)cc2)NC1=O [compound 198, cyclo(INal-R-4Pal-Nle-Y-Nle-NMeF-dC-ClAc)] ({CH2CO}-[1Nal]R[4Pal][Nle]Y[Nle][NMeF][dC]-OH; thioether N-8) | 299 |
| CCCC[C@@H]1NC(=O)[C@H](Cc2ccc(F)nc2)NC(=O)[C@H](C)N(C)C(=O)[C@H](Cc2ccccc2)OC(=O)C23CC(CNC(=O)[C@H](Cc4cccnc4)N(C)C(=O)[C@H](CCCC)NC(=O)[C@H](Cc4ccccc4F)NC1=O)(C2)C3 [compound 235, cyclo(FLac-NMeA-4F3Pal-Nle-Phe2F-Nle-NMe3Pal-amBCP)] (cyclo([NMe3Pal][X1][PhLac][NMeA][X25][Nle][Phe(2-F)][Nle])) | 18.7 |
